# Read-outs that look alike come from different tables or passages of the source.
# Assays:
# [1] = format: physicochemical; details: for Ea (activation energy for decomposition) / k at 25° C.: in xylene
# Experimental: Rates of dioxetane decomposition were monitored by the decay of chemiluminescence of aerated solutions. A cylindrical Pyrex vial equipped with magnet stir bar was filled with 3-4 mL of the reaction solvent, sealed with a Teflon-lined screw cap and placed in the thermostatted sample block of the chemiluminescence-measuring apparatus (Black Box). Temperature control was provided by an external circulating water bath. Appropriate values for the instrument gain and optical slit size were selected. […]. The vial was sealed with a Teflon-lined screw cap to prevent evaporation when high temperatures were used. Measurement of the signal was begun by opening the shutter. The chemiluminescent decay was generally recorded for at least three half-lives. Calculation of the first-order rate constant, k, from the In(Intensity) vs. time data was performed by a computer program utilizing a standard least-squares treatment. The correlation coefficient, r, was typically at least 0.999 and varied less than 5% between replicate samples. The observed rate was not measurably concentration dependent.
# Activation parameters for decomposition of the dioxetanes were calculated from plots of In k.vs. 1/T (Arrhenius eq.) or In k/t vs. 1/T (Eyring eq.) by a standard least-squares linear regression analysis.
# [2] = format: physicochemical; details: for base-induced decomposition, chemiluminescence: room temperature
# Experimental: (§1) A solution of the dioxetane in a suitable solvent (e.g. o-xylene) was placed in the reaction vial as described above. The vial was placed in the sample holder which was maintained at a temperature such that thermal decomposition of the dioxetane was negligible. Instrument parameters were selected as above and data collection started. A solution of the releasing agent (e.g. base or fluoride) preferably in the reaction solvent was injected by syringe into the rapidly stirred dioxetane solution. The volume of releasing agent added was generally less than 5% of the total volume so that temperature fluctuation of the sample during the time course of the decay was minimal. The pseudo-first order decay was monitored for at least three half-lives.
# 1. Triggering the Chemiluminescence of Hydroxy-Substituted Dioxetanes with Base: Potassium tert-butoxide induced decomposition of 2b. […].
# [3] = format: physicochemical
# Experimental: as §1
# 2. Triggering the Chemiluminescence of Silyloxy-Substituted Dioxetanes with Fluoride Ion: Fluoride ion induced decomposition of 2c. […]. […]. A spectrum of the chemiluminescence obtained from the fluoride triggering of 2c in 1:1 aqueous/2-methoxyethanol is shown in FIG. 1 with the solid line. The fluorescence of the cleavage product (methyl 6-hydroxy-2-naphthoate) from the dioxetane is also shown with the dashed line for comparison.
# [4] = Triggering properties of further dioxetanes (general statement); format: physicochemical
# Experimental: as §1
# [5] = biological target: T1, Acetylcholinesterase from human erythrocytes (Homo sapiens, UniProt P22303); test: Enzymatic triggering of chemiluminescence with acetylcholinesterase; format: biochemical; details: 10 μL stock in 3 mL 0.05M phosphate buffer pH 8.0, 37.0° C.
# T1 construct: purchased Sigma Chemical Co. C-3389; host or cells: human erythrocytes
# T1 sequence (P22303 other isoform, or with tags, fused parts or gaps): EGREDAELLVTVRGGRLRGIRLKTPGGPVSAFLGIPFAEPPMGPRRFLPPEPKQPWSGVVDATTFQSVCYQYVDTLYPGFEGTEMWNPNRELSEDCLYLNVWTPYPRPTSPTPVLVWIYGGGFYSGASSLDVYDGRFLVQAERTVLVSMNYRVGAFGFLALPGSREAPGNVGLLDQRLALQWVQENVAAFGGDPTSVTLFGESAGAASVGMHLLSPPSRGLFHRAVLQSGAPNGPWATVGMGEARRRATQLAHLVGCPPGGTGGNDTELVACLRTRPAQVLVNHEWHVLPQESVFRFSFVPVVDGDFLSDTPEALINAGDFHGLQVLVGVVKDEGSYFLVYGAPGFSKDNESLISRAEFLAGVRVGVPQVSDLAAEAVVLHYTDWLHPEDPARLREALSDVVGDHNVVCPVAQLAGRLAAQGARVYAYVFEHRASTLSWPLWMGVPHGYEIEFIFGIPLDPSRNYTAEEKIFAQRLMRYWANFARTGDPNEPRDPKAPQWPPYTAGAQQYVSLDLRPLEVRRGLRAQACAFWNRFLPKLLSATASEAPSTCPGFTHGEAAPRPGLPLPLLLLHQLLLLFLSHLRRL
# From the text: Acetylcholinesterase, an enzyme of considerable biological significance, hydrolyzes acetylcholine to choline and acetic acid under physiological conditions. It was of interest to determine whether this enzyme would also initiate the chemiluminescent decomposition of the acetyl-protected dioxetane 2e by removal of the acetyl group. Acetylcholinesterase (C-3389) from human erythrocytes was purchased from Sigma Chemical Co. as a lyophilized powder containing phosphate buffer salts. […]. Addition of more dioxetane during this period generated more light.
# [6] = test system: Aryl esterase (carboxylic ester hydrolase) from porcine liver; test: Enzymatic triggering of chemiluminescence with aryl esterase; format: biochemical; details: for effect of competing substrate on light intensity of 2e/esterase reaction: 10 μL of […] added at maximum emission, pH 7.6 phosphate buffer, 37° C.; for hydrolysis by the enzyme (UV spectroscopy): under the reaction conditions
# Experimental: (§2) A secondary stock solution of the acetate-protected dioxetane 2e was made by evaporating an aliquot of the methylene chloride stock equivalent to 10 micromoles of dioxetane and dissolving in 5.0 mL of 2-methoxyethanol to give a final concentration of 0.002M. […] Buffer solutions prepared in distilled water were 0.05M phosphate pH 7.6 and 8.0, 0.02M Tris (tris-hydroxymethylaninomethane maleate) pH 7.6, and pH 9.0 phosphate/borate buffer. Aryl esterase (also called carboxylic ester hydrolase (P-5221)) from porcine liver was purchased from Sigma Chemical Co. as a suspension of 11 mg of protein per mL in 3.2M (NH4)2 SO4 solution pH 8.0. Each mg of protein is equivalent to 260 Units, where 1 Unit is defined as the amount which will hydrolyze 1 micromole of ethyl butyrate in 1 minute at pH 8.0, 25° C. […] Injection of 1 μL of […] of aryl esterase to the stirred solution caused a chemiluminescent signal to appear. The intensity reached a maximum at about 3 minutes and decayed over a 30 minute period.
# (3.) When distilled water was substituted for the Tris buffer, no chemiluminescence signal was observed, but on adding Tris buffer to this solution light emission similar to that above was produced. […] Addition of untreated enzyme preparation to this solution again produced light. […] The emission could be totally extinguished by addition of sufficient SDS. The decrease in light emission is not due to photophysical quenching of the excited state since thermal decomposition in the same solvent system at elevated temperatures results in readily detectable chemiluminescence.
# This type of behavior explains the effect of the addition of the known esterase substrates α-naphthyl acetate and β-naphthyl acetate. […] A solution of 25 μL of the dioxetane stock (0.002M) in 3 mL of pH 7.6 phosphate buffer maintained at 37° C. was treated with 5 μL of the enzyme to initiate the chemiluminescence. At the point of maximum emission 10 μL of 0.011M solution of either α- or β-naphthyl acetate were added.
# [7] = format: physicochemical; details: 0.002M in 2-methoxyethanol, stored at 0° C.
# Experimental: as §2
# [8] = Stability of dioxetane in aqueous buffers (IMAX with delay before the enzyme was added); format: physicochemical
# Experimental: Stability of Enzyme and Dioxetane to Reaction Conditions. Many dioxetanes are known to be destroyed via a non-luminescent pathway by acid catalyzed processes in aprotic solvents. Similarly, amines are also known to cause the catalytic destruction of dioxetanes via an electron-transfer process. The stability of the dioxetane to the aqueous buffers used in the enzyme reactions, especially Tris buffer, was a matter of concern. A series of experiments were performed to assess the stability of the dioxetane in these buffers over the expected time course of a typical run. A comparison was made between the maximum light intensity produced for a given buffer and temperature with delays of 0 and 30 minutes before the enzyme was added. If the dioxetane were decomposing in the buffer then IMAX of the run where the dioxetane was exposed to the buffer for 30 minutes would be lower provided the enzyme is not saturated. […] In 0.05M phosphate buffer, pH 7.6 at 25° C. and 37 ° C. the percent decrease in IMAX due to the 30 minute delay was, respectively, 0 and 7% while in 0.02M Tris buffer, pH 7.6 at 25° C. a 12% decrease was found and at 37° C. after a delay of one hour a 34% decrease occurred.
# [9] = 0.3 μmol dioxetane, 0.26 units aryl esterase, pH 7.6 Tris buffer, 25° C.
# [10] = compared with dioxetanes 2a-c and 2e
# [11] = polar aprotic solvents such as acetonitrile
smiles,measurement,setting,value
"COC1(c2ccc3ccccc3c2)OOC12C1CC3CC(C1)CC2C3 (centres unmarked) [Dioxetane 2a, 4-Methoxy-4-(2-naphthyl)spiro[1,2-dioxetane-3,2'-adamantane]]",Ea (activation energy for decomposition),[1],29.7
same,k at 25° C.,[1]; 25° C.,3.17e-09 s⁻¹
"COC1(c2ccc3cc(O)ccc3c2)OOC12C1CC3CC(C1)CC2C3 (centres unmarked) [Dioxetane 2b, 4-(6-Hydroxy-2-naphthyl)-4-methoxyspiro[1,2-dioxetane-3,2'-adamantane]]",Ea (activation energy for decomposition),[1],29.7
same,k at 25° C.,[1]; 25° C.,3.83e-09 s⁻¹
same,"half-life of chemiluminescence decay, base triggered","[2]; 10^-4 M in o-xylene, potassium t-butoxide 0.005M, 25° C., 100 µM",approximately 20 seconds
same,base triggered chemiluminescence,[2]; in methanol with KOH or in o-xylene with n-BuLi,bright blue chemiluminescence with similar decay rates
COC1(c2ccc3cc(O[Si](C)(C)C(C)(C)C)ccc3c2)OOC12C1CC3CC(C1)CC2C3 (centres unmarked) [Dioxetane 2c],half-life of decomposition in the absence of fluoride ion,"[1]; 25° C., no fluoride",2.5 years
same,Ea (activation energy for decomposition),[1],27.0
same,k at 25° C.,[1]; 25° C.,8.72e-09 s⁻¹
same,"half-life of chemiluminescence decay, fluoride triggered","[3]; 10^-4 M in 0.01M tetrabutylammonium fluoride in 2-methoxyethanol, room temperature, 100 µM",about 20 minutes
COC1(c2ccc3cc(O[Si](c4ccccc4)(c4ccccc4)C(C)(C)C)ccc3c2)OOC12C1CC3CC(C1)CC2C3 (centres unmarked) [Dioxetane 2d],triggering properties,[4],triggering properties similar to dioxetanes 2a-c and 2e
same,chemiluminescence in polar aprotic solvents,[3],bright chemiluminescence
"COC1(c2ccc3cc(OC(C)=O)ccc3c2)OOC12C1CC3CC(C1)CC2C3 (centres unmarked) [Dioxetane 2e, 4-(6-Acetoxy-2-naphthyl)-4-methoxyspiro[1,2-dioxetane-3,2'-adamantane]]",persistence of thermal chemiluminescence,[1]; aliquot in 3 mL o-xylene at 95° C.,persisted for several hours
same,duration of light emission,[5],20 s
same,period of decay of chemiluminescence,[6]; [9],30 min
same,time at which intensity reached a maximum,[6]; [9],about 3 minutes
same,"maximum light intensity, IMAX, versus temperature","[6]; 1 μL enzyme, Tris buffer, 25°, 37° and 50° C.",increased with increasing temperature
same,chemiluminescence signal without enzyme,"[6]; 150 μL stock in 3.0 mL pH 7.6 Tris buffer, 25° C., before enzyme",no chemiluminescence signal was detected
same,stability of stock solution,[7],stable indefinitely
same,percent decrease in IMAX due to delay,"[8]; 0.02M Tris buffer pH 7.6, 25° C., 30 minute delay",12%
same,percent decrease in IMAX due to delay,"[8]; 0.02M Tris buffer pH 7.6, 37° C., delay of one hour",34%
same,percent decrease in IMAX due to delay,"[8]; 0.05M phosphate buffer pH 7.6, 25° C., 30 minute delay",0%
same,percent decrease in IMAX due to delay,"[8]; 0.05M phosphate buffer pH 7.6, 37° C., 30 minute delay",7%
Oc1ccc2c(c1)C1(OOC13C1CC4CC(C1)CC3C4)c1ccccc1-2 (centres unmarked) [Dioxetane 4a],triggering properties,[4]; [10],triggering properties similar to dioxetanes 2a-c and 2e
same,"base-induced decomposition, chemiluminescence",[2],produced chemiluminescence at room temperature
"CC(C)(C)[Si](C)(C)Oc1ccc2c(c1)C1(OOC13C1CC4CC(C1)CC3C4)c1ccccc1-2 (centres unmarked) [Dioxetane 4b, Dispiro[adamantane-2,3'-[1,2]dioxetane-4',9""-(2-tert-butyldimethylsilyloxy-9-fluorene)]]",chemiluminescence in polar aprotic solvents,[3]; [11],bright chemiluminescence
Oc1ccc2c(c1)Oc1ccccc1C21OOC12C1CC3CC(C1)CC2C3 (centres unmarked) [Dioxetane 6a],triggering properties,[4]; [10],triggering properties similar to dioxetanes 2a-c and 2e
same,"base-induced decomposition, chemiluminescence",[2],produced chemiluminescence at room temperature
CC(C)(C)[Si](C)(C)Oc1ccc2c(c1)Oc1ccccc1C21OOC12C1CC3CC(C1)CC2C3 (centres unmarked) [Dioxetane 6b],triggering properties,[4],triggering properties similar to dioxetanes 2a-c and 2e
same,chemiluminescence in polar aprotic solvents,[3],bright chemiluminescence
CC(=O)Oc1ccc2c(c1)Oc1ccccc1C21OOC12C1CC3CC(C1)CC2C3 (centres unmarked) [Dioxetane 6c],triggering properties,[4]; [10],triggering properties similar to dioxetanes 2a-c and 2e
COC1(c2cccc(O)c2)OOC12C1CC3CC(C1)CC2C3 (centres unmarked) [Dioxetane 8a],"base-induced decomposition, chemiluminescence",[2],produced chemiluminescence at room temperature
"COC1(c2cccc(O[Si](C)(C)C(C)(C)C)c2)OOC12C1CC3CC(C1)CC2C3 (centres unmarked) [Dioxetane 8b, 4-(3-tert-Butyldimethylsilyloxyphenyl)-4-methoxyspiro[1,2-dioxetane-3,2'-adamantane]]",chemiluminescence in polar aprotic solvents,[3]; [11],bright chemiluminescence
"CCCCCCCCCCCCOS(=O)(=O)[O-].[Na+] [sodium lauryl sulfate (SDS), sodium lauryl sulfate]",effect of enzyme inhibitor on light emission of 2e/esterase reaction,"[6]; added at maximum emission, Tris buffer, 1.5 μL enzyme",irreversible decrease in the intensity
CC(=O)Oc1cccc2ccccc12 [α-naphthyl acetate],effect of competing substrate on light intensity of 2e/esterase reaction,[6],rapid decrease in light intensity was noted followed by restoration of the original intensity within less than one minute
same,hydrolysis by the enzyme (UV spectroscopy),[6],hydrolyzed by the enzyme in seconds
CC(=O)Oc1ccc2ccccc2c1 [β-naphthyl acetate],effect of competing substrate on light intensity of 2e/esterase reaction,[6],rapid decrease in light intensity was noted followed by restoration of the original intensity within less than one minute
same,hydrolysis by the enzyme (UV spectroscopy),[6],hydrolyzed by the enzyme in seconds
